Data published in patent US10934332B2, “Structure-based peptide inhibitors that target the Tau VQIINK fibrillization segment” (THE REGENTS OF THE UNIVERSITY OF CALIFORNIA, priority 2017, dated 2021).
Like-named read-outs stand apart in the source and are kept apart here. No end group written: not given here.

Tests used:
[1] = tested on: HEK293 biosensor cells stably expressing full-length Tau 4R1N P301S-EYFP; test: Biosensor cell seeding with Tau40 fiber grown in the presence of inhibitor; format: cell-based, human; details: cells seeded with 125 nM Tau40 fiber grown with two-fold excess of inhibitor; about 61% in the absence of inhibitor
From the text: Cells seeded with Tau40 fiber grown with MINK or WINK reduced the percentage of seeded cells to 23 and 41%, respectively.
(§1) Engineered HEK293 cell lines stably expressing Tau40-YFP P301S, referred to as “tau biosensor cells” were engineered by Marc Diamond's lab at UTSW. Cells were maintained in DMEM (Life Technologies, cat. 11965092) supplemented with 10% (vol/vol) FBS (Life Technologies, cat. A3160401), 1% penicillin/streptomycin (Life Technologies, cat. 15140122), and 1% Glutamax (Life Technologies, cat. 35050061) at 37° C., 5% CO2 in a humidified incubator. Tau40 aggregates were prepared in PBS (pH 7.4) with 1 mM DTT by shaking 25 μM Tau40 with 0.5 mg/ml heparin in the presence or absence inhibitor peptide, as indicated. Fibers were sonicated in a cuphorn water bath for 3 minutes before seeding cells. For seeding, fibers were diluted in OptiMEM (Life Technologies, cat. 31985070) and transfected using Lipofectamine 2000 (Life Technologies, cat. 11668027) according to the manufacturer's instructions. After seeding, cells were imaged using a ZEISS Axio Observer D1 fluorescence microscope using the YFP fluorescence channel and Tau aggregates were counted in ImageJ software.

[2] = target: T1, Tau40 (Homo sapiens, UniProt P10636); test: ThT assay of Tau40 fibril formation; format: biochemical; details: heparin, shaking 700 rpm, 37° C.
T1 construct: Human Tau40 (residues 1-441) was expressed in pET28b; His-tag (C); made in house; host or cells: BL21-Gold E. coli
T1 sequence (P10636 1-441 isoform P10636-8): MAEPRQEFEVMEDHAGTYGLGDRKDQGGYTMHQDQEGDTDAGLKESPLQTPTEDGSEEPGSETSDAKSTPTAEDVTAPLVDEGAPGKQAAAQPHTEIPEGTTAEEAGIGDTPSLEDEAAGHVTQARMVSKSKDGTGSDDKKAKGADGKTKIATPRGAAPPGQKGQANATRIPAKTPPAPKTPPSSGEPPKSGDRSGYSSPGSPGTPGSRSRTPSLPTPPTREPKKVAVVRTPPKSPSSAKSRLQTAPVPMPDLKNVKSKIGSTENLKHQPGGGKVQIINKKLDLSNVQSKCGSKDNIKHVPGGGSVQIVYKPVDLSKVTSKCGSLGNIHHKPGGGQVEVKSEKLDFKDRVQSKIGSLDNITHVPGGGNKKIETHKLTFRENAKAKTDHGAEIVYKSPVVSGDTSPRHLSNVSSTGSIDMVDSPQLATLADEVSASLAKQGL
Experimental: The effect on fibril formation of Tau40 of the two resulting VQIINK (SEQ ID NO: 11) inhibitors, MINK (which contains a Met at position 4 to disrupt interface A) and WINK (which instead contains a Trp) was evaluated in vitro using a ThT assay.
Human Tau40 (residues 1-441) was expressed in pET28b with a C-terminal His-tag in BL21-Gold E. coli cells grown in TB to an OD600=0.8. Cells were induced with 0.5 mM IPTG for 3 hours at 37° C. and lysed by sonication in 50 mM Tris (pH 8.0) with 500 mM NaCl, 20 mM imidazole, 1 mM beta-mercaptoethanol, and HALT protease inhibitor. Cells were lysed by sonication, clarified by centrifugation at 15,000 rpm for 15 minutes, and passed over a 5 ml HisTrap affinity column. The column was washed with lysis buffer and eluted over a gradient of imidazole from 20 to 300 mM. Fractions containing purified Tau40 were dialyzed into 50 mM MES buffer (pH 6.0) with 50 mM NaCl and 1 mM beta-mercaptoethanol and purified by cation exchange as described for K18. Peak fractions were polished on a HiLoad 16/600 Superdex […] in 1×PBS (pH 7.4), and concentrated to ˜20-60 mg/ml by ultrafiltration using a 10 kDa cutoff.
Concentrated Tau protein was diluted into PBS buffer (pH 7.4) to a final concentration as indicated in the text. Proteins were shaken as solutions containing 75 μM ThT, 0.5 mg/ml heparin, 1 mM DTT, and a two-fold molar excess of inhibitor (when indicated) in 96-well plates with a plastic bead to enhance agitation. ThT fluorescence was measured with excitation and emission wavelengths of 440 and 480 nm, and averaged curves were generated from duplicate measurements.

[3] = tested on: Full-length Tau-YFP biosensor cells seeded with pre-formed Tau40 fibers; format: cell-based, human; details: for inhibition of seeding by pre-formed Tau40 fibers (in words): pre-formed Tau40 fibrils incubated with inhibitor before applying to biosensor cells
Experimental: To test whether VQIINK (SEQ ID NO: 11) inhibitors can cap pre-formed fibers to block their spread, Tau40 amyloid fibrils were incubated with varying concentrations of inhibitor before applying to biosensor cells and measuring seeding. In addition, a third VQIINK (SEQ ID NO: 11) inhibitor, RINK which contains an Arg at position 4, was also tested.
as §1

[4] = 10 μM Tau40, two-fold mole excess of inhibitor
[5] = 25 μM Tau40, two-fold mole excess of inhibitor

| Substance | percentage of seeded cells (cells with intracellular aggregates) [1] [%] | Tau40 fibril formation (ThT fluorescence) [2, 4] | Tau40 fibril formation (ThT fluorescence) [2, 5] | IC50 [3] [µM] | inhibition of seeding by pre-formed Tau40 fibers (in words) [3] | seeding by Tau40 fibers in biosensor cells (fluorescence images) ([3]; 5 μM inhibitor) | seeding by Tau40 fibers in biosensor cells (fluorescence images) ([3]; 25 μM inhibitor) |
| --- | --- | --- | --- | --- | --- | --- | --- |
| DVQMINKKRK [MINK, DVQMINKKRK] | 23 | completely inhibiting any detectable Tau40 fibril formation for at least 60 hours | reduced Tau40 aggregation to about half | 22 | inhibit seeding by Tau40 fibers in a concentration dependent fashion | – | – |
| DVQRINKKRK | – | – | – | – | inhibited more poorly than MINK and WINK | – | – |
| DVQWINKKRK [WINK, DVQWINKKRK] | 41 | reducing the amount of Tau40 aggregation to about half | reduced Tau40 aggregation to about half | 25 | inhibit seeding by Tau40 fibers in a concentration dependent fashion | – | – |
| DVWMINKKRK [W-MINK, DVWMINKKRK] | – | – | – | 9 | – | Tau40 fibers are still able to induce seeding | seeding by Tau40 fibers is no longer observed |
| W-WINK: Phase 2 inhibitor: WINK incorporating a Trp steric clash at position 3 (DVWWINKKRK) | – | – | – | – | performed more poorly than W-MINK | – | – |
